Data: the NIST ThermoML archive (doi:10.1021/acs.jced.9b00474)
Numbers after ± are expanded uncertainties.

Columns and labels:
[1] = Crystal 2; visual observation
[2] = Molar enthalpy of transition or fusion; conditions: Crystal 2; DSC
[3] = xn = mol fraction of the nth substance listed; conditions: 100 kPa, Liquid, x2 = 0.334; for mass density: Vibrating tube method; for viscosity: Cone and plate viscometry

## C[N+](C)(C)CCO.[Cl-] [choline chloride]
[1]
  Triple point temperature: 351.62 ± 3 K
[2]
  Molar enthalpy of transition or fusion: 1.75 ± 0.0717 kcal/mol

## NC(N)=O [urea] + C[N+](C)(C)CCO.[Cl-]
[3]; 293.15 K
  mass density: 1203 ± 1 kg/m3
[3]; 293.25 K
  viscosity: 2110 ± 210 mPa·s
[3]; 299.45 K
  viscosity: 1286 ± 120 mPa·s
[3]; 303.15 K
  mass density: 1197 ± 1 kg/m3
[3]; 305.85 K
  viscosity: 725 ± 64 mPa·s
[3]; 312.15 K
  viscosity: 432 ± 36 mPa·s
[3]; 313.15 K
  mass density: 1192 ± 1 kg/m3
[3]; 318.35 K
  viscosity: 265 ± 21 mPa·s
[3]; 323.15 K
  mass density: 1186 ± 1 kg/m3
[3]; 324.55 K
  viscosity: 170 ± 13 mPa·s
[3]; 330.95 K
  viscosity: 116 ± 8 mPa·s
[3]; 333.15 K
  mass density: 1180 ± 1 kg/m3
[3]; 337.15 K
  viscosity: 83 ± 6 mPa·s
[3]; 343.15 K
  mass density: 1175 ± 1 kg/m3
[3]; 343.35 K
  viscosity: 61 ± 4 mPa·s
[3]; 349.55 K
  viscosity: 46 ± 3 mPa·s
[3]; 353.15 K
  mass density: 1170 ± 1 kg/m3
[3]; 355.85 K
  viscosity: 36 ± 3 mPa·s
[3]; 362.05 K
  viscosity: 27 ± 2 mPa·s
[3]; 363.15 K
  mass density: 1164 ± 1 kg/m3
[3]; 368.25 K
  viscosity: 21 ± 2 mPa·s
